Assay results published in ChEMBL document CHEMBL1909046, “DrugMatrix in vitro pharmacology data”.

Legend:
[1] = molecular target: 5-hydroxytryptamine receptor 4 (Cavia porcellus, UniProt O70528); type: cell membranes, Dunkin-Hartley, Striatum, Membrane; note: in other assays of this panel Not Active means under 50% inhibition at 10 µM
[2] = molecular target: T1, Vasoactive intestinal polypeptide receptor 1 (Homo sapiens, UniProt P32241); type: cell membranes, Membrane; conditions: ht-29; note: in other assays of this panel Not Active means under 50% inhibition at 10 µM
T1 sequence (P32241 whole entry): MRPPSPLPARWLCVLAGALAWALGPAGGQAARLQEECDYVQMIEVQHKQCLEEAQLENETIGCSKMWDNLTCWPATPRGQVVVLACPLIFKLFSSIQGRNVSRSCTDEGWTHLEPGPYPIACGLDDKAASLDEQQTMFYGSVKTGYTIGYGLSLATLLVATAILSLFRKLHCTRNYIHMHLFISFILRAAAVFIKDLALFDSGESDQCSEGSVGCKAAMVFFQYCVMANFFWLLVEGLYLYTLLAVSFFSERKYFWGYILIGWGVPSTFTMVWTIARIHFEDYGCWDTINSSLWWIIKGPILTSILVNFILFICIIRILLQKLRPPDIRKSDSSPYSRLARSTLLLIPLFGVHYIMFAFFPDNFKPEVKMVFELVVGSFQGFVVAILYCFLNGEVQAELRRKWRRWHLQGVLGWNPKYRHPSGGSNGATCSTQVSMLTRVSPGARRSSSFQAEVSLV

[3] = molecular target: T2, Endothelin-1 receptor (Homo sapiens, UniProt P25101); type: cell membranes, CHO-K1, Membrane; conditions: cho-k1; note: in other assays of this panel Not Active means under 50% inhibition at 10 µM
T2 sequence (P25101 whole entry): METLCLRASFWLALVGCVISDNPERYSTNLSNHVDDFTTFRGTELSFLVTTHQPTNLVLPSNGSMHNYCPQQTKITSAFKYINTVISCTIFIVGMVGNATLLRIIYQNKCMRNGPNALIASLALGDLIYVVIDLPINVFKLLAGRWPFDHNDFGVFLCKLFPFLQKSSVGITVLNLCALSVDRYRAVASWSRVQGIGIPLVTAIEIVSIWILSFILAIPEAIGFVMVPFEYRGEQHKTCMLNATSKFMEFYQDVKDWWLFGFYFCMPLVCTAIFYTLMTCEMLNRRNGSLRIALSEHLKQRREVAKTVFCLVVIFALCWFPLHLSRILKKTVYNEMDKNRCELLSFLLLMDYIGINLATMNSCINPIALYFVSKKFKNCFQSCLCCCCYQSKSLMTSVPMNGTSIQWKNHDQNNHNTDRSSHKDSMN

[4] = DRUGMATRIX: Interleukin IL-1 radioligand binding (ligand: [125I] interleukin 1beta); type: cell membranes, Membrane; conditions: nih3t3; Not Active = under 50% inhibition at 10 µM
[5] = DRUGMATRIX: Purinergic P2X radioligand binding (ligand: [3H] alpha, beta-Methylene-ATP); type: cell membranes, Oryctolagus cuniculus, New Zealand albino, Urinary bladder, Membrane; conditions: Not Active = under 50% inhibition at 10 µM
[6] = molecular target: T3, 5-hydroxytryptamine receptor 1A (Rattus norvegicus, UniProt P19327); type: cell membranes, CHO-K1, Membrane; note: in other assays of this panel Not Active means under 50% inhibition at 10 µM
T3 sequence (P19327 whole entry): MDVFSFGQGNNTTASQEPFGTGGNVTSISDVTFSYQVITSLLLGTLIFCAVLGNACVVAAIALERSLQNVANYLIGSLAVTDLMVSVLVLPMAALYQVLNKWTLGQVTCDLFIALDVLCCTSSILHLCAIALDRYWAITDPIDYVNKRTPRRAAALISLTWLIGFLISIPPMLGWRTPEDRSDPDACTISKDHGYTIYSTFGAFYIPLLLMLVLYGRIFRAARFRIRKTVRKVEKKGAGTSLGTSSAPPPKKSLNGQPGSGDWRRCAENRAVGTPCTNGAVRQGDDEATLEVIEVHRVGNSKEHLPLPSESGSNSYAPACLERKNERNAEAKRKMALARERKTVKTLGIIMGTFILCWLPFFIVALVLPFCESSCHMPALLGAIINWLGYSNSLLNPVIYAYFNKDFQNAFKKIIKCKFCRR

[7] = molecular target: Cytochrome P450 2C19 (Homo sapiens, UniProt P33261); conditions: bti-tn-5b1-4; note: in other assays of this panel Not Active means under 50% inhibition at 10 µM
[8] = molecular target: Voltage-gated inwardly rectifying potassium channel KCNH2 (Homo sapiens, UniProt Q12809); conditions: hek293; note: in other assays of this panel Not Active means under 50% inhibition at 10 µM
Chain of Voltage-gated inwardly rectifying potassium channel KCNH2 (Q12809 whole entry): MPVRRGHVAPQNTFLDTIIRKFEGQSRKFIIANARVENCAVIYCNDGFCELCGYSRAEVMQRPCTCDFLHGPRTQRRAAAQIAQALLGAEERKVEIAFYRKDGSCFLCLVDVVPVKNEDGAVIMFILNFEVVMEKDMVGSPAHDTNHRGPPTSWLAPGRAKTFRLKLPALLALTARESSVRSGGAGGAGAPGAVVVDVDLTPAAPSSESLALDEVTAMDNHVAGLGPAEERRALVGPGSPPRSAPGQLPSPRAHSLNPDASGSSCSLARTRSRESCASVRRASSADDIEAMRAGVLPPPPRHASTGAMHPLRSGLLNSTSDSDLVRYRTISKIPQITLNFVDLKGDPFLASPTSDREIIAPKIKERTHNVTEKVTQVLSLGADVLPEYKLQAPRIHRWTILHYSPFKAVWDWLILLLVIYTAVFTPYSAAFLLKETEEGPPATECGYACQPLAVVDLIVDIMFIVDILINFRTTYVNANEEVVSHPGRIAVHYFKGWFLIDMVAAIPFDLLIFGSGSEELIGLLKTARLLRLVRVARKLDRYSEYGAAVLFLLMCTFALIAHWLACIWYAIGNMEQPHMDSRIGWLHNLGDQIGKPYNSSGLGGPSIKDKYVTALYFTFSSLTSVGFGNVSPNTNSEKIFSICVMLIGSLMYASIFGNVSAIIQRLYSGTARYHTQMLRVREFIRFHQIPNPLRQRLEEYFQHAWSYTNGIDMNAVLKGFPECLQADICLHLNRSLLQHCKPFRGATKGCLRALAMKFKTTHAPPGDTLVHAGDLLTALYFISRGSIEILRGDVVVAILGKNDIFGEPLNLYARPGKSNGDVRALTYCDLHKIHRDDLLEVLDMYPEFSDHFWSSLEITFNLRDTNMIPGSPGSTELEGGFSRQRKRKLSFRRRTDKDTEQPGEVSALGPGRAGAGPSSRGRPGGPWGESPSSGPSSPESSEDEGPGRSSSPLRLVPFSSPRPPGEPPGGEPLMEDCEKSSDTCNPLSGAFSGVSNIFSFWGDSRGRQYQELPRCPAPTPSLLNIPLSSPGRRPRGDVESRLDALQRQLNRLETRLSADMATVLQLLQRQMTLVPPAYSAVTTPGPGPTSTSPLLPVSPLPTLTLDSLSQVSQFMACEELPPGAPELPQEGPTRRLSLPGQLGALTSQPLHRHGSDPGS

Chain of Cytochrome P450 2C19 (P33261 whole entry): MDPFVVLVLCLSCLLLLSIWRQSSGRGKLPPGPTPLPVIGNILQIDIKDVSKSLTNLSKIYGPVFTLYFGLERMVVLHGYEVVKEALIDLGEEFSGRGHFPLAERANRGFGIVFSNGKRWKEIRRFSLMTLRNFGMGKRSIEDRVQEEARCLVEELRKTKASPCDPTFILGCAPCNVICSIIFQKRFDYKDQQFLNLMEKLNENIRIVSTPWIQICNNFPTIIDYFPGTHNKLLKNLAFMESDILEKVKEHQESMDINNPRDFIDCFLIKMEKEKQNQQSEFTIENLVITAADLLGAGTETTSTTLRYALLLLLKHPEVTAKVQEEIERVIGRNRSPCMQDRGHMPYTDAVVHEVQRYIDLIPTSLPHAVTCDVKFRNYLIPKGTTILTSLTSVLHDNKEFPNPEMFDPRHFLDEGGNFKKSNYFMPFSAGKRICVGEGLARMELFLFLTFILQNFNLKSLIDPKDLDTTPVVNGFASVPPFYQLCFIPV
Chain of 5-hydroxytryptamine receptor 4 (O70528 whole entry): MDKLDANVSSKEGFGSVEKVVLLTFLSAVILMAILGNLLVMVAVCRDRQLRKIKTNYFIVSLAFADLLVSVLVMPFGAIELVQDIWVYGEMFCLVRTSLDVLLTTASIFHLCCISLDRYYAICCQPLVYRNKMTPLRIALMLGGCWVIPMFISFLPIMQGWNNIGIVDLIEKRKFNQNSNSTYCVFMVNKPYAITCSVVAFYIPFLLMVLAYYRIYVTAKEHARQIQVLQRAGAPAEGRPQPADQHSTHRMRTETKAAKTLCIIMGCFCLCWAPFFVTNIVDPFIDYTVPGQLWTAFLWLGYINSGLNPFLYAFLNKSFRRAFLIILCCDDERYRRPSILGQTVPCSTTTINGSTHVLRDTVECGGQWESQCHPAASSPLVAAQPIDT

Row | SMILES | IC50 [1] | IC50 [2] | IC50 [3] | IC50 [4] | Ki [4] | IC50 [5] | Ki [5] | IC50 ([6]; cho-k1) | IC50 [7] | Ki [7] | IC50 [8] | Ki [8] | IC50 ([6]; read-out: IC50) [µM] | Ki ([6]; read-out: Ki) [µM]
1 | C[C@H]([C@](O)(Cn1cncn1)c1ccc(F)cc1F)S(C)(=O)=O [GENACONAZOLE] | Not Active | Not Active | Not Active | Not Active | Not Active | Not Active | Not Active | Not Active | Not Active | Not Active | Not Active | Not Active |  | 
2 | Cc1c(F)c(N2CCNC(C)C2)cc2c1c(=O)c(C(=O)O)cn2C1CC1 (centres undefined) [GREPAFLOXACIN] | Not Active | Not Active | Not Active | Not Active | Not Active | Not Active | Not Active | Not Active | Not Active | Not Active | Not Active | Not Active |  | 
3 | N=C(N)N/N=C/c1c(Cl)cccc1Cl [GUANABENZ] | Not Active | Not Active | Not Active | Not Active | Not Active | Not Active | Not Active |  | Not Active | Not Active | Not Active | Not Active | 2.07 | 1.18
4 | C[C@]12CCC(=O)C=C1CC[C@@H]1[C@@H]2[C@@H](O)C[C@@]2(C)[C@H]1CC[C@]2(O)C(=O)CO [HYDROCORTISONE] | Not Active | Not Active | Not Active | Not Active | Not Active | Not Active | Not Active | Not Active | Not Active | Not Active | Not Active | Not Active |  | 
5 | NC[C@H]1O[C@H](O[C@H]2[C@H](O)[C@@H](O[C@H]3O[C@H](CO)[C@@H](O)[C@H](N)[C@H]3O)[C@H](N)C[C@@H]2N)[C@H](O)[C@@H](O)[C@@H]1O [KANAMYCIN] | Not Active | Not Active | Not Active | Not Active | Not Active | Not Active | Not Active | Not Active | Not Active | Not Active | Not Active | Not Active |  | 
6 | CC(C(=O)O)c1ccc(CC2CCCC2=O)cc1 (centres undefined) [LOXOPROFEN] | Not Active | Not Active | Not Active | Not Active | Not Active | Not Active | Not Active | Not Active | Not Active | Not Active | Not Active | Not Active |  | 
7 | Cc1cccc(Nc2ccccc2C(=O)O)c1C [MEFENAMIC ACID] | Not Active | Not Active | Not Active | Not Active | Not Active | Not Active | Not Active | Not Active | Not Active | Not Active | Not Active | Not Active |  | 
8 | CC(=O)O[C@]1(C(C)=O)CC[C@H]2[C@@H]3C=C(C)C4=CC(=O)CC[C@]4(C)[C@H]3CC[C@@]21C [MEGESTROL ACETATE] | Not Active | Not Active | Not Active | Not Active | Not Active | Not Active | Not Active | Not Active | Not Active | Not Active | Not Active | Not Active |  | 
9 | COc1ccccc1OCC(O)COC(N)=O (centres undefined) [METHOCARBAMOL] | Not Active | Not Active | Not Active | Not Active | Not Active | Not Active | Not Active | Not Active | Not Active | Not Active | Not Active | Not Active |  | 
